Test results from ChEMBL document CHEMBL1123745, “Preparation and biological evaluation of a potential photoaffinity label for the prostaglandin H2/thromboxane A2 receptor” (J Med Chem, 1987).

Key:
[1] = target: T1, Thromboxane A2 receptor (Homo sapiens) (UniProt P21731); experiment: Ability to inhibit the U-46,619 (TXA2 agonist,3uM) induced aggregation in human platelets; range (5-20 uM); type: functional
T1 sequence (whole entry): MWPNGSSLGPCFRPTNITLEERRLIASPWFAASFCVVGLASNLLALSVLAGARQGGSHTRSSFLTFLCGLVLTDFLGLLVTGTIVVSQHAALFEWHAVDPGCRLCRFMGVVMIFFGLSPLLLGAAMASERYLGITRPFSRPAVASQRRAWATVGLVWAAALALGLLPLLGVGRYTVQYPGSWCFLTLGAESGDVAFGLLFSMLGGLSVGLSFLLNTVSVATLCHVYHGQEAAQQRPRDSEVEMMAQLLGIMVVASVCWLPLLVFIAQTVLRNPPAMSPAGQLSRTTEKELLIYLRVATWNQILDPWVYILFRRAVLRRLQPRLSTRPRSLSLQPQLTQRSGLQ

[2] = Ability to inhibit U-46,619 (0.5 uM) induced aggregation in human platelet rich plasma (PRP) relative to 13-azaprostanoic acid; type: functional
[3] = Ability to inhibit ADP (10 uM) induced aggregation in human platelet rich plasma (PRP) relative to 13-azaprostanoic acid; type: functional
Homo sapiens = organism: Homo sapiens; experiment: Inhibition of [3H]U-46619 binding in dark incubated platelets; type: functional
[4] = target: T1, Thromboxane A2 receptor (Homo sapiens); experiment: Ability to inhibit the U-46,619 (TXA2 agonist, 3 uM); type: functional
[5] = target: T1, Thromboxane A2 receptor (Homo sapiens); experiment: Inhibition of UV-irridiated platelets relative to dark incubated platelets after irreversible inhibition of U-46,619 binding after photoactivation (p<0.02); settings: concentration not given here
[6] = target: T1, Thromboxane A2 receptor (Homo sapiens); experiment: Ability to inhibit the U-46,619 (TXA2 agonist,3 uM) induced aggregation in human platelets was determined; type: functional

Compound	ED50 [1] [µM]	other results
O=C(O)CCCCCCC1CCCC1NCCCOc1ccccc1 (stereo not given)	20	
O=C(O)CCCCCCC1CCCC1NCCCc1ccc([N+](=O)[O-])cc1 (cis isomer)	20	
[N-]=[N+]=Nc1ccc(CCCNC2CCCC2CCCCCCC(=O)O)cc1 (cis isomer)	20	
O=C(O)CCCCCCC1CCCC1NCCCOc1ccc([N+](=O)[O-])cc1 (stereo in doubt)	20	
[N-]=[N+]=Nc1ccc(OCCCNC2CCCC2CCCCCCC(=O)O)cc1 (trans isomer)	20	Inhibition [2]: 38%; Inhibition [3]: 50%
[N-]=[N+]=Nc1ccc(CCCNC2CCCC2CCCCCCC(=O)O)cc1 (trans isomer) [listing 1 of 2 here]		Inhibition [2]: 63%; Inhibition [3]: 19%
[N-]=[N+]=Nc1ccc(CCCNC2CCCC2CCCCCCC(=O)O)cc1[127I] (trans isomer)		Ki (Homo sapiens): 290 nM; Inhibition [2]: 81%; Inhibition [3]: 15%
Nc1ccc(CCCNC2CCCC2CCCCCCC(=O)O)cc1 (trans isomer)	20	
Nc1ccc(OCCCNC2CCCC2CCCCCCC(=O)O)cc1 (trans isomer)	20	
O=C(O)CCCCCCC1CCCC1NCCCOc1ccc([N+](=O)[O-])cc1 (trans isomer)	20	
O=C(O)CCCCCCC1CCCC1NCCCOc1ccccc1 (trans isomer)		ED50 [4]: 20 µM
O=C(O)CCCCCCC1CCCC1NCCCc1ccc([N+](=O)[O-])cc1 (trans isomer)	20	
[N-]=[N+]=Nc1ccc(CCCNC2CCCC2CCCCCCC(=O)O)cc1 (trans isomer) [listing 2 of 2 here]	20	
[N-]=[N+]=Nc1ccc(CCCNC2CCCC2CCCCCCC(=O)O)cc1I (trans isomer)		inhibition [5]: 38%; ED50 [6]: 2 µM
